Experimental data: patent US10537103B2, “Antibacterial composition containing an isomer mixture of monosaccharide alkyl monoacetals or monoethers” (TEREOS STARCH & SWEETENERS BELGIUM, priority 2014, dated 2020)
Values after ≈ are worked out from the molar mass of the structure shown. Like-named read-outs stand apart in the source and are kept apart here.

Tests used:
[1] = system: E. faecalis strains (ATCC 29212, 9901, 1801); assay: MIC on a wider panel of strains (Example 10), microdilution; assay type: cell-based; details: Enterococcus faecalis, ATCC29212
Procedure: The cultures studied, freshly isolated (after incubation on a blood agar at 37° C. for 18 h), are taken up in sterile water (10 mL) until obtaining a 0.5 McFarland (Mc) suspension i.e. 1 to 1 to 2×10^8 CFU (bacteria)/cm^3. The bacterial suspension was then diluted to obtain a final concentration of 1×10^6 CFU/cm^3. Each well contains an identical quantity of Mueller-Hinton medium (a rich medium for bacterial culture) and bacteria with final [concentration of] 0.5×10^6 CFU/cm^3. The test compounds of interest are solubilized in ethanol or DMSO at 25 mg/mL before being diluted to different concentrations two by two. On the multiwell plate, a first series has been planned comprising the culture medium without the test compound of interest. It corresponds to the growth control (control well). These controls serve as reference for comparing bacterial growth with that of the subsequent wells comprising different concentrations of the test compound of interest. The second series of wells comprises the mother solution for the test compound of interest for a concentration in the wells of 256 mg/L (7 mM). Each series of wells was diluted two by two until the last series for a final concentration of 0.25 mg/L (0.0007 mM). Each concentration is duplicated in the same plate. The plate is incubated for 18 h at 37° C. […] If there is antibacterial activity, the bacterial growth is inhibited, which means that no turbidity or bacterial residue is present. The minimum inhibitory concentrations (MIC) are tested on Gram-positive bacterial strains according to the recommendations of the “Clinical Laboratory Standards Institute” (Clinical-Laboratory-Standards-Institute, 6th ed. Approved standard M100-S17. CLSI, Wayne, Pa., 2007). The clinical strains have been isolated in the Hospice de Lyon. Enterococci: E. faecalis (ATCC® 29212™), clinical enterococci strains E. faecalis isolated from urines: strain 015206179901 (hereinafter 9901), strain 015205261801 (hereinafter 1801) The cultures studied, freshly isolated (after incubation on a blood agar at 37° C. for 18 h), are taken up in sterile water (10 mL) until obtaining a 0.5 McFarland (Mc) suspension i.e. At 10^8 CFU (bacteria)/cm^3. The bacterial suspension was then diluted to obtain a final concentration of 10^6 CFU/cm^3.

[2] = system: L. monocytogenes strains (CIP 103575, LM1, LM2, LM3); assay: as above; assay type: cell-based; details: Listeria monocytogenes, CIP103575
Procedure: The cultures studied, freshly isolated (after incubation on a blood agar at 37° C. for 18 h), are taken up in sterile water (10 mL) until obtaining a 0.5 McFarland (Mc) suspension i.e. 1 to 1 to 2×10^8 CFU (bacteria)/cm^3. The bacterial suspension was then diluted to obtain a final concentration of 1×10^6 CFU/cm^3. Each well contains an identical quantity of Mueller-Hinton medium (a rich medium for bacterial culture) and bacteria with final [concentration of] 0.5×10^6 CFU/cm^3. The test compounds of interest are solubilized in ethanol or DMSO at 25 mg/mL before being diluted to different concentrations two by two. On the multiwell plate, a first series has been planned comprising the culture medium without the test compound of interest. It corresponds to the growth control (control well). These controls serve as reference for comparing bacterial growth with that of the subsequent wells comprising different concentrations of the test compound of interest. The second series of wells comprises the mother solution for the test compound of interest for a concentration in the wells of 256 mg/L (7 mM). Each series of wells was diluted two by two until the last series for a final concentration of 0.25 mg/L (0.0007 mM). Each concentration is duplicated in the same plate. The plate is incubated for 18 h at 37° C. […] If there is antibacterial activity, the bacterial growth is inhibited, which means that no turbidity or bacterial residue is present. The minimum inhibitory concentrations (MIC) are tested on Gram-positive bacterial strains according to the recommendations of the “Clinical Laboratory Standards Institute” (Clinical-Laboratory-Standards-Institute, 6th ed. Approved standard M100-S17. CLSI, Wayne, Pa., 2007). The clinical strains have been isolated in the Hospice de Lyon. Listeria: L. monocytogenes (CIP 103575), clinical strain isolated from hemoculture (015189074801, LM1), a strain isolated from cerebrospinal liquid (015170199001, LM2), clinical strains isolated from hemoculture (015181840701, LM3). The cultures studied, freshly isolated (after incubation on a blood agar at 37° C. for 18 h), are taken up in sterile water (10 mL) until obtaining a 0.5 McFarland (Mc) suspension i.e. At 10^8 CFU (bacteria)/cm^3. The bacterial suspension was then diluted to obtain a final concentration of 10^6 CFU/cm^3.

[3] = E. faecalis ATCC 29212, read-out: MIC Enterococcus ATCC 29212
[4] = L. monocytogenes CIP 103575, read-out: MIC Listeria CIP 103575

Row | SMILES | MIC [1, 3] | MIC [2, 4] | MIC ([1]; E. faecalis clinical strain 015205261801, from urines, read-out: MIC Enterococcus 1801) | MIC ([1]; E. faecalis clinical strain 015206179901, from urines, read-out: MIC Enterococcus 9901) | MIC ([2]; clinical strain from hemoculture 015181840701, read-out: MIC Listeria LM3) | MIC ([2]; clinical strain from hemoculture 015189074801, read-out: MIC Listeria LM1) | MIC ([2]; strain from cerebrospinal liquid 015170199001, read-out: MIC Listeria LM2)
1 | CCCCCCCCCCCC1OCC2O[C@H](OC)C(O)C(O)[C@@H]2O1 (stereo partly drawn) [Compound 1e, Methyl 4,6-O-Dodecylidene α-D-glucopyranoside] | 256 µg/mL (≈ 710 µM) | 64 µg/mL (≈ 178 µM) |  |  |  |  | 
2 | CCCCCCCCCCCC1OCC2O[C@@H](OC)C(O)C(O)[C@@H]2O1 (stereo partly drawn) [Compound 1f, Methyl 4,6-O-Dodecylidene β-D-glucopyranoside] | 64 µg/mL (≈ 178 µM) | 16 µg/mL (≈ 44.4 µM) | 8 µg/mL (≈ 22.2 µM) | 32 µg/mL (≈ 88.8 µM) | 64 µg/mL (≈ 178 µM) | 16 µg/mL (≈ 44.4 µM) | 16 µg/mL (≈ 44.4 µM)
